Results reported in patent publication US7750000B2, “Substituted imidazo[1,2b]pyridazines as kinase inhibitors, their preparation and use as medicaments” (Bayer Schering Pharma AG, priority 2005, dated 2010).

What was measured:
[1] = test system: interleukin 2 (IL-2) secretion of peripheral blood mononuclear cells (PBMC); assay: Antibody-induced (anti-CD3/anti-CD28) IL-2 secretion in PBMC, ELISA; type: cell-based; details: human PBMC, anti-CD3/anti-CD28 stimulation; for IC50: 20 hours, read-out: IC50 (concentration for 50% inhibition of IL-2)
Protocol: The extent to which test substance influence antibody-induced interleukin 2 (IL-2) secretion was investigated in the following test system. IL-2 represents a central cytokine which is produced and released by activated T cells. IL-2 synthesis in the T cells is regulated by a plurality of kinases. An inhibitory effect of substances on kinases leads inter alia to inhibition of IL-2 synthesis and inhibition of the T cell immune response. The cytokine determinations were carried out using an ELISA kit.
Peripheral blood mononuclear cells (PBMC) were isolated from heparinized human whole blood by gradient centrifugation using Histopaque 1077 (Sigma) at room temperature, and the erythrocytes were lyzed hypotonically and, after washing twice in PBS, taken up in cell culture medium (10% fetal inactivated calf serum in RPMI-1640+Glutamax-I [Gibco]).
The 96 well culture plates (Costar) were previously incubated with 100 μl of antibody solution in PBS 0.1 μg/ml in PBS [Gibco]) per well at 4° C. for 18 hours. The antibodies used were anti-CD3 and anti-CD28 monoclonal antibodies (PharMingen). After washing with PBS three times, the plates were charged with 200 μl of the cell suspension (40 000 cells/well). […]
The cultures were incubated in an incubator at 37° C. for 20 hours. After this incubation, the plates were briefly shaken and centrifuged, and […] of supernatant were removed, and the supernatants were then frozen at −20° C.
Interleukin-2 was determined using an ELISA kit (Bioscience), and the absorption of the color change was analyzed in a SpectraMax 340 PC (wavelength 450 nm). Active substances brought about a reduction in the absorption.

PKC theta = PKC theta (Homo sapiens, UniProt Q04759); assay: Inhibition of PKC theta; type: biochemical
Sequence of PKC theta (Q04759 whole entry): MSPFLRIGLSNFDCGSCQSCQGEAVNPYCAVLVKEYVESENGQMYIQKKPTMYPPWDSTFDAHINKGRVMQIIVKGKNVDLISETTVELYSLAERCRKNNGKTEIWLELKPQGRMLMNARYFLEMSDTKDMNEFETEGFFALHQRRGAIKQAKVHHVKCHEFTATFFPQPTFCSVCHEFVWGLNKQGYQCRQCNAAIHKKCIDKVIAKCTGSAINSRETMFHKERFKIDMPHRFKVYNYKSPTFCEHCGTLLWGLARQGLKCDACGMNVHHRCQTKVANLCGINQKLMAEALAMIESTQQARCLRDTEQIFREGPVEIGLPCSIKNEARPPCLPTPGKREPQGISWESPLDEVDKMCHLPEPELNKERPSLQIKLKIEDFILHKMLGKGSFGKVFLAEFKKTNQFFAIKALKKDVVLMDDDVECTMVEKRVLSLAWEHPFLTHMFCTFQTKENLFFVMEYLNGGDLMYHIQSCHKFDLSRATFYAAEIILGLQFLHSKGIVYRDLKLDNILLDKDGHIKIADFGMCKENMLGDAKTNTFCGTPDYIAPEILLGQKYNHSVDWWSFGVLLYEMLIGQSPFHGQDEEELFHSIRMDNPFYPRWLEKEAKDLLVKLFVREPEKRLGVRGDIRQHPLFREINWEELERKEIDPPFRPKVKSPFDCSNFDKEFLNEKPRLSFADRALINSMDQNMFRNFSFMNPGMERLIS

Structure (SMILES) | IC50 (PKC theta) [nM] | IC50 [1] [nM] | inhibition at 10 µM [1] [%]
Clc1cccc(-c2cnc3ccc(NCCCN4CCCC4)nn23)c1 [OP 3073] | 250 | 210 | > 95
CCN(CC)CCCNc1ccc2ncc(-c3ccccc3)n2n1 [KE1322-011-a] | 5500 | 2600 | 
CCN(CC)CCCC(C)Nc1ccc2ncc(-c3ccccc3)n2n1 (stereo not drawn) [KE1322-010-a] | 5400 | 1100 | 
Cc1[nH]ncc1CCCNc1ccc2ncc(-c3ccsc3)n2n1 [KE1322-042-a] | 13000 | 400 | 
c1ccc(-c2cnc3ccc(NCCCN4CCOCC4)nn23)cc1 [OP 3071] | 17000 | 2500 | > 95
Cn1cc(-c2cnc3ccc(NCC4CCCCC4)nn23)cn1 [KE1322-028-a] | 7000 |  | 
c1ccc(-c2cnc3ccc(NCCCN4CCCC4)nn23)cc1 [OP 3070] | 6100 | 1400 | > 95
Cc1[nH]ncc1CCCNc1ccc2ncc(-c3ccccc3)n2n1 [KE1322-006-a] | 11300 | 2000 | 
Clc1cccc(-c2cnc3ccc(NCCCN4CCOCC4)nn23)c1 [OP 3074] | 410 | 920 | > 95
Clc1cccc(-c2cnc3ccc(NCCN4CCCC4)nn23)c1 [KE1322-024-a] | 1700 | 1000 | 

More lines, in order of falling IC50 (PKC theta), values ahead:

IC50 (PKC theta) [nM] | Structure (SMILES) | IC50 [1] [nM] | inhibition at 10 µM [1] [%]
12900 | c1ccc(-c2cnc3ccc(NCCCn4ccnc4)nn23)cc1 [KE1322-002-a] | 1700 | 
7200 | Clc1cccc(-c2cnc3ccc(NCCCn4ccnc4)nn23)c1 [KE1322-014-a] | 1100 | 
7200 | Cc1[nH]ncc1CCCNc1ccc2ncc(-c3cnn(C)c3)n2n1 [KE1322-030-a] | 700 | 
250 | CCN(CC)CCCNc1ccc2ncc(-c3cccc(Cl)c3)n2n1 [KE1322-023-a] | 210 | 
220 | CCN(CC)CCCC(C)Nc1ccc2ncc(-c3cccc(Cl)c3)n2n1 (stereo not drawn) [KE1322-022-a] | 290 | 
